Like-named read-outs stand apart in the source and are kept apart here.
Assay: GHB toxicokinetic study, i.v. bolus, plasma and urine up to 8 h, noncompartmental analysis
Assay type: in vivo, Sprague Dawley rats
Conditions: rat, iv
Method: Male and female Sprague Dawley (SD) rats, ovariectomized (OVX) females, and castrated (CST) males were obtained from Charles River (Wilmington, MA, USA) at 8 weeks of age. The animals were housed under controlled temperature and humidity with an artificial 12 h light/dark cycle, and food and water were available ad libitum. The animals were acclimatized for at least one week before experiments. Hormone treatment was conducted by implanting OVX female and CST male rats subcutaneously with 60-day release pellets containing 7.5 mg testosterone or corresponding placebo pellets (Innovative Research of America) at 10 weeks of age. After 21 days of hormone exposure, rats were utilized in toxicokinetic studies. Age-matched male and female rats were used as control groups. Female rats in the estrus stage were selected for the study. Estrus cycle stages of female rats were monitored daily by vaginal lavage smear, as described in previously published literature. The Institutional Animal Care and Use Committee (IACUC) at the University of the Pacific approved all experiments.
Jugular vein cannulas were surgically implanted under anesthesia with ketamine/xylazine. Cannulas were flushed daily with heparinized saline to maintain patency. Rats were allowed a minimum of 72 h for recovery from surgery before the experiments were conducted. GHB was administered intravenously as a 1000 mg/kg i.v. bolus or 1500 mg/kg iv bolus with or without AR-C155858 (1 mg/kg i.v. bolus) via a jugular vein cannula to the animals at 13 weeks of age (N = 5–7 per group). Rats were dosed in metabolic cages with ad libitum access to water to allow for the concurrent collection of blood and urine samples for up to 8 h. GHB was administered as a 300 mg/mL solution in sterile water, and the time of administration was considered as time 0. AR-C155858 was administered as a 1 mg/mL solution in 10% cyclodextrin in normal saline 5 min after GHB administration. Blood samples (200 μL) were taken from the jugular vein cannula at different time points: 5, 10, 20, 30, 60, 90, 120, 180, 240, 270, 300, and 330 min for 1000 mg/kg and 10, 30, 60, 90, 120, 180, 240, 270, 300, 330, 360, and 390/480 min for 1500 mg/kg bolus with or without AR-C155858. Plasma samples were separated by centrifugation and stored at −20 °C. Urine samples were collected at 120, 240, and 360 min for 1000 mg/kg and 120, 240, and 390/480 min for 1500 mg/kg bolus with or without AR-C155858 post-dose; the total urine volume was determined, and the samples were stored at −20 °C.
GHB in plasma and urine were quantified using a validated liquid chromatography/tandem mass spectrometry (LC/MS/MS) assay that was described previously. Briefly, for the preparation of plasma standards and quality controls (QCs), 5 μL of GHB-d6 and 5 μL of standard stock solution or QC stock solution were added to 45 μL of blank plasma. For each unknown plasma sample, 5 μL of GHB-d6 was added to 50 μL of plasma. Protein precipitation was then performed by the addition of 800 μL of acetonitrile with 0.1% formic acid, followed by centrifugation at 10,000 rpm for 20 min. 750 μL of the supernatant was transferred to a clean disposable glass tube and evaporated using a MultiVap Nitrogen Evaporator (Organomation, Berlin, MA, USA) under a nitrogen stream. Dried samples were reconstituted in 250 μL of 95:5 double-distilled water—acetonitrile with 0.1% acetic acid. For urine standards and QCs, 25 μL of blank urine, 5 μL of standard or QC stock solution, 5 μL of GHB-d6, and 465 μL of double-distilled water were mixed. For unknown urine samples, 25 μL of the sample was added to 5 μL of GHB-d6 and 470 μL of double-distilled water. The same LC/MS/MS method was used for GHB plasma and urine analyses. LC/MS/MS equipment consisted of an Agilent 1200 series UPLC consisting of an online degasser, binary pump, and autosampler (Agilent Technologies, Santa Clara, CA, USA) connected to a Agilent 6460 Triple Quad Mass Spectrometer. […]

O=C(O)CCCO [GHB, Γ-hydroxybutyric acid]
clearance (female, Sprague Dawley, plasma and urine, 1000 mg/kg, 1000 mg/kg GHB iv, intact female (estrus) rats, read-out: CLm – Metabolic clearance): 4.1 ± 0.6 mL/min/kg | CL renal (female, Sprague Dawley, plasma and urine, 1500 mg/kg, 1500 mg/kg GHB iv, OVX testosterone placebo rats, read-out: CLR (renal clearance)): 3.5 ± 0.5 mL/min/kg | CL renal (female, Sprague Dawley, plasma and urine, 1500 mg/kg, 1500 mg/kg GHB iv, OVX testosterone rats, read-out: CLR (renal clearance)): 2.7 ± 1.5 mL/min/kg | CL renal (female, Sprague Dawley, plasma and urine, 1500 mg/kg, 1500 mg/kg GHB iv, intact female (estrus) rats, read-out: CLR (renal clearance)): 3.7 ± 1.1 mL/min/kg | clearance (female, Sprague Dawley, plasma, 1000 mg/kg, 1000 mg/kg GHB iv, OVX testosterone placebo rats, read-out: CL - Total clearance): 5.5 ± 0.3 mL/min/kg | clearance (female, Sprague Dawley, plasma, 1000 mg/kg, 1000 mg/kg GHB iv, intact female (estrus) rats, read-out: CL - Total clearance): 6.8 ± 0.7 mL/min/kg | clearance (female, Sprague Dawley, plasma, 1500 mg/kg, 1500 mg/kg GHB iv, intact female (estrus) rats, read-out: CL (total clearance)): 4.7 ± 1.1 mL/min/kg | CL renal (female, Sprague-Dawley, plasma and urine, 1500 mg/kg, 1500 mg/kg GHB + 1mg/kg AR-C 155858 iv, OVX testosterone placebo rats, read-out: CLR (renal clearance)): 7 ± 1.4 mL/min/kg | clearance (female, Sprague-Dawley, plasma and urine, 1500 mg/kg, 1500 mg/kg GHB + 1mg/kg AR-C 155858 iv, OVX testosterone placebo rats, read-out: CLm (metabolic clearance)): 2.7 ± 0.9 mL/min/kg | CL renal (female, Sprague-Dawley, plasma and urine, 1500 mg/kg, 1500 mg/kg GHB + 1mg/kg AR-C 155858 iv, OVX testosterone rats, read-out: CLR (renal clearance)): 7 ± 0.9 mL/min/kg | clearance (female, Sprague-Dawley, plasma and urine, 1500 mg/kg, 1500 mg/kg GHB + 1mg/kg AR-C 155858 iv, OVX testosterone rats, read-out: CLm (metabolic clearance)): 2.4 ± 1.3 mL/min/kg | CL renal (female, Sprague-Dawley, plasma and urine, 1500 mg/kg, 1500 mg/kg GHB + 1mg/kg AR-C 155858 iv, intact female (estrus) rats, read-out: CLR (renal clearance)): 6.3 ± 1.8 mL/min/kg | clearance (female, Sprague-Dawley, plasma and urine, 1500 mg/kg, 1500 mg/kg GHB + 1mg/kg AR-C 155858 iv, intact female (estrus) rats, read-out: CLm (metabolic clearance)): 2.2 ± 0.4 mL/min/kg | clearance (female, Sprague-Dawley, plasma, 1500 mg/kg, 1500 mg/kg GHB + 1mg/kg AR-C 155858 iv, OVX testosterone placebo rats, read-out: CL (total clearance)): 9.7 ± 2.1 mL/min/kg | clearance (female, Sprague-Dawley, plasma, 1500 mg/kg, 1500 mg/kg GHB + 1mg/kg AR-C 155858 iv, OVX testosterone rats, read-out: CL (total clearance)): 9.4 ± 1.4 mL/min/kg | clearance (female, Sprague-Dawley, plasma, 1500 mg/kg, 1500 mg/kg GHB + 1mg/kg AR-C 155858 iv, intact female (estrus) rats, read-out: CL (total clearance)): 8.5 ± 1.9 mL/min/kg | clearance (female, Sprague-Dawley, plasma, 1500 mg/kg, 1500 mg/kg GHB iv, OVX testosterone placebo rats, read-out: CL (total clearance)): 5.7 ± 0.9 mL/min/kg | CL renal (male, Sprague Dawley, plasma and urine, 1000 mg/kg, 1000 mg/kg GHB iv, CST testosterone placebo rats, read-out: CLR - Renal clearance): 3 ± 0.7 mL/min/kg | clearance (male, Sprague Dawley, plasma and urine, 1000 mg/kg, 1000 mg/kg GHB iv, CST testosterone placebo rats, read-out: CLm – Metabolic clearance): 1.6 ± 0.5 mL/min/kg | clearance (male, Sprague Dawley, plasma and urine, 1000 mg/kg, 1000 mg/kg GHB iv, CST testosterone rats, read-out: CLm – Metabolic clearance): 2.1 ± 0.4 mL/min/kg | CL renal (male, Sprague Dawley, plasma and urine, 1000 mg/kg, 1000 mg/kg GHB iv, intact male rats, read-out: CLR - Renal clearance): 2.2 ± 0.4 mL/min/kg | clearance (male, Sprague Dawley, plasma and urine, 1000 mg/kg, 1000 mg/kg GHB iv, intact male rats, read-out: CLm – Metabolic clearance): 2.4 ± 0.5 mL/min/kg | CL renal (male, Sprague Dawley, plasma and urine, 1500 mg/kg, 1500 mg/kg GHB iv, CST testosterone placebo rats, read-out: CLR (renal clearance)): 2.9 ± 0.4 mL/min/kg | CL renal (male, Sprague Dawley, plasma and urine, 1500 mg/kg, 1500 mg/kg GHB iv, intact male rats, read-out: CLR (renal clearance)): 4.2 ± 1.3 mL/min/kg | clearance (male, Sprague Dawley, plasma, 1000 mg/kg, 1000 mg/kg GHB iv, CST testosterone placebo rats, read-out: CL - Total clearance): 4.6 ± 0.8 mL/min/kg | clearance (male, Sprague Dawley, plasma, 1000 mg/kg, 1000 mg/kg GHB iv, CST testosterone rats, read-out: CL - Total clearance): 5.3 ± 1 mL/min/kg | clearance (male, Sprague Dawley, plasma, 1000 mg/kg, 1000 mg/kg GHB iv, intact male rats, read-out: CL - Total clearance): 4.6 ± 0.8 mL/min/kg | clearance (male, Sprague Dawley, plasma, 1500 mg/kg, 1500 mg/kg GHB iv, intact male rats, read-out: CL (total clearance)): 4.8 ± 1.4 mL/min/kg | CL renal (male, Sprague-Dawley, plasma and urine, 1000 mg/kg, 1000 mg/kg GHB iv, CST testosterone rats, read-out: CLR - Renal clearance): 3.2 ± 0.9 mL/min/kg | CL renal (male, Sprague-Dawley, plasma and urine, 1500 mg/kg, 1500 mg/kg GHB + 1mg/kg AR-C 155858 iv, CST testosterone placebo rats, read-out: CLR (renal clearance)): 5.4 ± 1.1 mL/min/kg | clearance (male, Sprague-Dawley, plasma and urine, 1500 mg/kg, 1500 mg/kg GHB + 1mg/kg AR-C 155858 iv, CST testosterone placebo rats, read-out: CLm (metabolic clearance)): 2.5 ± 1.3 mL/min/kg | CL renal (male, Sprague-Dawley, plasma and urine, 1500 mg/kg, 1500 mg/kg GHB + 1mg/kg AR-C 155858 iv, CST testosterone rats, read-out: CLR (renal clearance)): 5.6 ± 1.2 mL/min/kg | clearance (male, Sprague-Dawley, plasma and urine, 1500 mg/kg, 1500 mg/kg GHB + 1mg/kg AR-C 155858 iv, CST testosterone rats, read-out: CLm (metabolic clearance)): 1.9 ± 0.1 mL/min/kg | CL renal (male, Sprague-Dawley, plasma and urine, 1500 mg/kg, 1500 mg/kg GHB + 1mg/kg AR-C 155858 iv, intact male rats, read-out: CLR (renal clearance)): 6.1 ± 0.5 mL/min/kg | clearance (male, Sprague-Dawley, plasma and urine, 1500 mg/kg, 1500 mg/kg GHB + 1mg/kg AR-C 155858 iv, intact male rats, read-out: CLm (metabolic clearance)): 2.1 ± 0.3 mL/min/kg | CL renal (male, Sprague-Dawley, plasma and urine, 1500 mg/kg, 1500 mg/kg GHB iv, CST testosterone rats, read-out: CLR (renal clearance)): 1.4 ± 0.6 mL/min/kg | clearance (male, Sprague-Dawley, plasma, 1500 mg/kg, 1500 mg/kg GHB + 1mg/kg AR-C 155858 iv, CST testosterone placebo rats, read-out: CL (total clearance)): 7.9 ± 1.2 mL/min/kg | clearance (male, Sprague-Dawley, plasma, 1500 mg/kg, 1500 mg/kg GHB + 1mg/kg AR-C 155858 iv, CST testosterone rats, read-out: CL (total clearance)): 7.5 ± 1.4 mL/min/kg | clearance (male, Sprague-Dawley, plasma, 1500 mg/kg, 1500 mg/kg GHB + 1mg/kg AR-C 155858 iv, intact male rats, read-out: CL (total clearance)): 8.2 ± 0.6 mL/min/kg | clearance (male, Sprague-Dawley, plasma, 1500 mg/kg, 1500 mg/kg GHB iv, CST testosterone placebo rats, read-out: CL (total clearance)): 4.9 ± 0.4 mL/min/kg | clearance (male, Sprague-Dawley, plasma, 1500 mg/kg, 1500 mg/kg GHB iv, CST testosterone rats, read-out: CL (total clearance)): 3.2 ± 0.7 mL/min/kg

Source: paper PMC10821532, “Sex and Cross-Sex Testosterone Treatment Alters Gamma-Hydroxybutyrate Acid Toxicokinetics and Toxicodynamics in Rats” (Pharmaceutics, 2024)
